Results taken from patent US20100227887A1 (priority 2009, published 2010).

Assays:
human mGlu 5a receptor = target: T1, human mGlu 5a receptor (Homo sapiens, UniProt P41594); assay: [3H]MPEP competition binding on membranes of EBNA cells transfected with human mGlu 5a receptor; details: [3H]MPEP (2 nM) competition, 1 h at 4° C., EBNA cell membranes
T1 construct: expressed in transfected cells; host or cells: EBNA cells (transient transfection); cell membrane homogenates
Description: The pharmacological activity of the compounds was tested using the following method: For binding experiments, cDNA encoding human mGlu 5a receptor was transiently transfected into EBNA cells using a procedure described by Schlaeger and Christensen [Cytotechnology 15:1-13 (1998)]. Cell membrane homogenates were stored at −80° C. until the day of assay where upon they were thawed and resuspended and polytronised in 15 mM Tris-HCl, 120 mM NaCl, 100 mM KCl, 25 mM CaCl2, 25 mM MgCl2 binding buffer at pH 7.4 to a final assay concentration of 20 μg protein/well.
Saturation isotherms were determined by addition of twelve [^3H]MPEP concentrations (0.04-100 nM) to these membranes (in a total volume of 200 μl) for 1 h at 4° C. Competition experiments were performed with a fixed concentration of [^3H]MPEP (2 nM) and IC50 values of test compounds evaluated using 11 concentrations (0.3-10,000 nM). Incubations were performed for 1 h at 4° C.
At the end of the incubation, membranes were filtered onto unifilter (96-well white microplate with bonded GF/C filter preincubated 1 h in 0.1% PEI in wash buffer, Packard Bio-Science, Meriden, Conn.) with a Filtermate 96 harvester (Packard BioScience) and washed 3 times with cold 50 mM Tris-HCl, pH 7.4 buffer. Nonspecific binding was measured in the presence of 10 μM MPEP. The radioactivity on the filter was counted (3 min) on a Packard Top-count microplate scintillation counter with quenching correction after addition of 45 μl of microscint 40 (Canberra Packard S. A., Zürich, Switzerland) and shaking for 20 min.
For binding experiments the Ki values of the compounds tested are given. The Ki value is defined by the following formula: […]
in which the IC50 values are those concentrations of the compounds tested which cause 50% inhibition of the competing radioligand ([^3H]MPEP). L is the concentration of radioligand used in the binding experiment and the Kd value of the radioligand is empirically determined for each batch of membranes prepared.

T1 sequence (P41594 21-1180 isoform P41594-2 limits assumed): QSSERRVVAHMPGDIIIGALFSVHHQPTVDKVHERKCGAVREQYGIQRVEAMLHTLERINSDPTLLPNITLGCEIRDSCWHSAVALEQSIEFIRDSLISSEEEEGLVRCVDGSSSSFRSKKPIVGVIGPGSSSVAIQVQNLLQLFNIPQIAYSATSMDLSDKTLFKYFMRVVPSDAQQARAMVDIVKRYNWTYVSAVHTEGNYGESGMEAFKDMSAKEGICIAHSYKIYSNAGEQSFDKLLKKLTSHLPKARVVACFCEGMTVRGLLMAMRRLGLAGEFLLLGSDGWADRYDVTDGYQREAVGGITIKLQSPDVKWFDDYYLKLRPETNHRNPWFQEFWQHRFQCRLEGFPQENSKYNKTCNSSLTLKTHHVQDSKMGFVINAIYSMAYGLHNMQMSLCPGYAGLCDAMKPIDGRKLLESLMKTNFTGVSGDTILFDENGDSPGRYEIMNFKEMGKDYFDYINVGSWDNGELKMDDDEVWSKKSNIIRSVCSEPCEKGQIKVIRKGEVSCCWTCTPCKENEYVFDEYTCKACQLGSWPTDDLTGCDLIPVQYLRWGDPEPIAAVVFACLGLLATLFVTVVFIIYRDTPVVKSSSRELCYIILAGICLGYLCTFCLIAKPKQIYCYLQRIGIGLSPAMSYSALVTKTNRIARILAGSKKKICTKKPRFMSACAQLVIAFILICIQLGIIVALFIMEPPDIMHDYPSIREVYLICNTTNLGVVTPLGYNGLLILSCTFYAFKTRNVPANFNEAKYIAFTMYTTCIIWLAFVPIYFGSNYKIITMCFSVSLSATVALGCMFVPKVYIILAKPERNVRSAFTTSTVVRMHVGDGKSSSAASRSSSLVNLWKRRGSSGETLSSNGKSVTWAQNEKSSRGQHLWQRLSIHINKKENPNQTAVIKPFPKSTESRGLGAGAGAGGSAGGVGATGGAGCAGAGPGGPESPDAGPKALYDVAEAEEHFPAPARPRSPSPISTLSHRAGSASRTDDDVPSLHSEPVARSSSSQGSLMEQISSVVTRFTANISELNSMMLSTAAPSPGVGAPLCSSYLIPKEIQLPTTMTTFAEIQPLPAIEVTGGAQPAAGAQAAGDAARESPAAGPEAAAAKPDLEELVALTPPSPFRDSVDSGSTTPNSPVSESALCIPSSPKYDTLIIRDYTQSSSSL

SMILES	melting point	Ki (human mGlu 5a receptor)
Cc1cc(C#N)cc(C(=O)Nc2cccc(F)c2)n1 [Example 41, 4-Cyano-6-methyl-pyridine-2-carboxylic acid (3-fluoro-phenyl)-amide]	139 °C	0.009 µM
Cc1cc(NC(=O)c2cc(Cl)cc(C)n2)ccn1 [Example 53, 4-Chloro-6-methyl-pyridine-2-carboxylic acid (2-methyl-pyridin-4-yl)-amide]	162 °C	–
Cc1cc(C#N)cc(C(=O)Nc2nc(C)cs2)n1 [Example 3, 4-Cyano-6-methyl-pyridine-2-carboxylic acid (4-methyl-thiazol-2-yl)-amide]	211 °C	0.015 µM
Cc1ccc(NC(=O)c2nc(C)cc(C#N)c2C)nc1 [Example 32, 4-Cyano-3,6-dimethyl-pyridine-2-carboxylic acid (5-methyl-pyridin-2-yl)-amide]	212.5 °C	–
Cc1cc(C#N)cc(C(=O)Nc2cccc(Cl)n2)n1 [Example 23, 4-Cyano-6-methyl-pyridine-2-carboxylic acid (6-chloro-pyridin-2-yl)-amide]	222.5 °C	0.008 µM
Cc1cc(C#N)cc(C(=O)Nc2cccc(Cl)c2)n1 [Example 26, 4-Cyano-6-methyl-pyridine-2-carboxylic acid (3-chloro-phenyl)-amide]	147.5 °C	0.006 µM
Cc1cc(Cl)cc(C(=O)Nc2ccn(C)n2)n1 [Example 2, 4-Chloro-6-methyl-pyridine-2-carboxylic acid (1-methyl-1H-pyrazol-3-yl)-amide]	203.5 °C	0.073 µM
Cc1cc(Cl)cc(C(=O)Nc2cccc(Cl)c2)n1 [Example 37, 4-Chloro-6-methyl-pyridine-2-carboxylic acid (3-chloro-phenyl)-amide]	174 °C	0.055 µM
Cc1cccc(NC(=O)c2cc(Cl)cc(C)n2)c1 [Example 51, 4-Chloro-6-methyl-pyridine-2-carboxylic acid m-tolylamide]	95 °C	0.097 µM
Cc1cc(C#N)c(C)c(C(=O)Nc2ccc(Cl)cn2)n1 [Example 29, 4-Cyano-3,6-dimethyl-pyridine-2-carboxylic acid (5-chloro-pyridin-2-yl)-amide]	264 °C	0.097 µM
N#Cc1cc(CO)nc(C(=O)Nc2ccc(F)cn2)c1 [Example 46, 4-Cyano-6-hydroxymethyl-pyridine-2-carboxylic acid (5-fluoro-pyridin-2-yl)-amide]	232.5 °C	0.111 µM
Cc1cc(C#N)cc(C(=O)Nc2cccc(C(F)(F)F)c2)n1 [Example 44, 4-Cyano-6-methyl-pyridine-2-carboxylic acid (3-trifluoromethyl-phenyl)-amide]	167 °C	0.042 µM
Cc1cc(C#N)c(C)c(C(=O)Nc2ccc(F)c(C)n2)n1 [Example 28, 4-Cyano-3,6-dimethyl-pyridine-2-carboxylic acid (5-fluoro-6-methyl-pyridin-2-yl)-amide]	201 °C	–
Cc1cc(NC(=O)c2cc(C#N)cc(C)n2)ccn1 [Example 50, 4-Cyano-6-methyl-pyridine-2-carboxylic acid (2-methyl-pyridin-4-yl)-amide]	302 °C	0.099 µM
Cc1cc(C#N)cc(C(=O)Nc2ccnc(F)c2)n1 [Example 48, 4-Cyano-6-methyl-pyridine-2-carboxylic acid (2-fluoro-pyridin-4-yl)-amide]	246.5 °C	0.033 µM
Cc1cc(Cl)cc(C(=O)Nc2ccc(F)cn2)n1 [Example 18, 4-Chloro-6-methyl-pyridine-2-carboxylic acid (5-fluoro-pyridin-2-yl)-amide]	156 °C	0.03 µM
C#Cc1cc(C)nc(C(=O)Nc2ccn(C)n2)c1 [Example 7, 4-Ethynyl-6-methyl-pyridine-2-carboxylic acid (1-methyl-1H-pyrazol-3-yl)-amide]	226.5 °C	0.033 µM
COc1cccc(NC(=O)c2cc(C#N)cc(C)n2)c1 [Example 45, 4-Cyano-6-methyl-pyridine-2-carboxylic acid (3-methoxy-phenyl)-amide]	189 °C	0.057 µM
Cc1cc(C#N)cc(C(=O)Nc2ccc(C#N)cn2)n1 [Example 6, 4-Cyano-6-methyl-pyridine-2-carboxylic acid (5-cyano-pyridin-2-yl)-amide]	279 °C	0.109 µM

SMILES	melting point	Ki (human mGlu 5a receptor)
Cc1cc(Br)cc(C(=O)Nc2ccc(F)cn2)n1 [Example 8, 4-Bromo-6-methyl-pyridine-2-carboxylic acid (5-fluoro-pyridin-2-yl)-amide]	160 °C	0.037 µM
Cc1cc(Cl)cc(C(=O)Nc2ccnc(Cl)c2)n1 [Example 34, 4-Chloro-6-methyl-pyridine-2-carboxylic acid (2-chloro-pyridin-4-yl)-amide]	221 °C	–
N#Cc1cc(C(=O)Nc2ccc(Cl)cn2)nc(C(F)(F)F)c1 [Example 33, 4-Cyano-6-trifluoromethyl-pyridine-2-carboxylic acid (5-chloro-pyridin-2-yl)-amide]	208 °C	–
Cc1cc(Cl)cc(C(=O)Nc2nc(C)cs2)n1 [Example 20, 4-Chloro-6-methyl-pyridine-2-carboxylic acid (4-methyl-thiazol-2-yl)-amide]	176 °C	0.014 µM
Cc1cc(C#N)cc(C(=O)Nc2ccc(F)c(C)c2)n1 [Example 49, 4-Cyano-6-methyl-pyridine-2-carboxylic acid (4-fluoro-3-methyl-phenyl)-amide]	177 °C	0.072 µM
Cc1cc(C#N)cc(C(=O)Nc2ccn(C)n2)n1 [Example 1, 4-Cyano-6-methyl-pyridine-2-carboxylic acid (1-methyl-1H-pyrazol-3-yl)-amide]	201 °C	0.038 µM
Cc1cc(Cl)cc(C(=O)Nc2cccc(F)c2)n1 [Example 52, 4-Chloro-6-methyl-pyridine-2-carboxylic acid (3-fluoro-phenyl)-amide]	123 °C	–
Cc1cc(C#N)cc(C(=O)Nc2ccc(F)c(Cl)c2)n1 [Example 38, 4-Cyano-6-methyl-pyridine-2-carboxylic acid (3-chloro-4-fluoro-phenyl)-amide]	204 °C	0.027 µM
Cc1cc(C#N)cc(C(=O)Nc2ccc(F)cn2)n1 [Example 4, 4-Cyano-6-methyl-pyridine-2-carboxylic acid (5-fluoro-pyridin-2-yl)-amide]	204.5 °C	0.006 µM
Cc1cc(Cl)cc(C(=O)Nc2ccc(Cl)cn2)n1 [Example 17, 4-Chloro-6-methyl-pyridine-2-carboxylic acid (5-chloro-pyridin-2-yl)-amide]	151 °C	–
Cc1cccc(NC(=O)c2cc(Cl)cc(C)n2)n1 [Example 36, 4-Chloro-6-methyl-pyridine-2-carboxylic acid (6-methyl-pyridin-2-yl)-amide]	130.5 °C	0.015 µM
Cc1ccc(NC(=O)c2cc(Cl)cc(C)n2)nc1 [Example 19, 4-Chloro-6-methyl-pyridine-2-carboxylic acid (5-methyl-pyridin-2-yl)-amide]	159 °C	0.109 µM
Cc1cc(C#N)c(C)c(C(=O)Nc2ccc(F)cn2)n1 [Example 27, 4-Cyano-3,6-dimethyl-pyridine-2-carboxylic acid (5-fluoro-pyridin-2-yl)-amide]	196.5 °C	0.031 µM
CCc1cc(Br)cc(C(=O)Nc2ccc(F)cn2)n1 [Example 21, 4-Bromo-6-ethyl-pyridine-2-carboxylic acid (5-fluoro-pyridin-2-yl)-amide]	123.5 °C	–
Cn1ccc(NC(=O)c2cc(C#N)cc(C(F)(F)F)n2)n1 [Example 15, 4-Cyano-6-trifluoromethyl-pyridine-2-carboxylic acid (1-methyl-1H-pyrazol-3-yl)-amide]	190.5 °C	–
CC(C)c1cc(C#N)cc(C(=O)Nc2ccn(C)n2)n1 [Example 13, 4-Cyano-6-isopropyl-pyridine-2-carboxylic acid (1-methyl-1H-pyrazol-3-yl)-amide]	174 °C	–
Cc1cc(C#N)cc(C(=O)Nc2ccc(F)cc2)n1 [Example 39, 4-Cyano-6-methyl-pyridine-2-carboxylic acid (4-fluoro-phenyl)-amide]	189 °C	–
Cc1cc(C#N)c(C)c(C(=O)Nc2ccc(C#N)cn2)n1 [Example 31, 4-Cyano-3,6-dimethyl-pyridine-2-carboxylic acid (5-cyano-pyridin-2-yl)-amide]	216 °C	–
